From the METLIN SMRT retention time set (Domingo-Almenara et al. 2019) come the findings set out here.

The data set can be described thus: gradient 5% acetonitrile 3 min, to 50% in 2 min, to 85% in 15 min, held 3 min, 100 µL/min. The settings on record: column: Zorbax Extend-C18 2.1 x 50 mm; eluents: water / acetonitrile, 0.1% formic acid. An outline of the steps:
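Mixtures of ~100 pure standards were chromatographed on a Zorbax Extend-C18 column (2.1 × 50 mm, 1.8 μm) at 100 μL/min using water and acetonitrile, each with 0.1% formic acid. Detection used a quadrupole time-of-flight mass spectrometer in positive and negative ionization mode, and data collection spanned 3 months. Retention time was obtained from adduct peaks picked computationally and each checked manually.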
With `CCc1ccc(NC(=O)Cn2nc3cc(C)nc(Nc4ccc(F)c(C)c4)n3c2=O)cc1`, the RP-LC retention time was determined as 1160 s.
Under `CCc1nn(C)c(=O)c2cc(S(=O)(=O)NCc3ccc(F)c(Cl)c3)cn12` stands 933 s; under `O=C(Nc1nc(-c2ccc(Cl)cc2)cs1)c1ccc2c(c1)OCO2`, 1110 s; under `COc1ccc(OC)c(CNC(=O)Cn2cc(-c3nnco3)c3ccccc32)c1`, 765 s.
Under `O=C(CSc1nnc(NC(=O)C2(c3cccs3)CCCC2)s1)c1ccccc1` stands 1050 s; under `COCCCNC(=O)C1CCCN(S(=O)(=O)c2ccc(OC)c(OC)c2)C1` (stereo not given), 699 s.
For `COc1ccc(C(=O)N2CCC[C@H]2c2nc(-c3ccccc3)n[nH]2)cn1` the value was 659 s; for `Cc1noc(-c2ccnc(-n3cnc(C(=O)NCc4ccccc4F)c3)c2)n1`, 833 s; for `Cc1ccc(-c2csc(-c3cccn3CC(=O)NCc3ccco3)n2)cc1`, 1100 s.
On to `Cc1ccc(NC(=O)C2CCN(S(=O)(=O)c3ccc4c(c3)sc(=O)n4C)CC2)cc1F`, for which the RP-LC retention time was 933 s.
Under `CCCn1cc(-c2nc(-c3ccncc3)no2)c(=O)c2cc(F)ccc21` stands 728 s.
For `O=C(c1ccc(F)c(F)c1)N1CCN(c2nc(CN3CCOCC3)cs2)CC1` the value was 617 s.
For `CCOc1ccccc1-c1c(C#N)c(N)nc2c1c(=O)n(C)c(=O)n2C` the value was 786 s; for `Cc1noc(-c2ccc(=O)n(CC(=O)Nc3ccccc3)c2)n1`, 667 s; for `Cc1ccc(C2Cn3cnc(C(=O)N4CCC(C(=O)NCc5ccc(F)cc5F)CC4)c3CO2)cc1` (stereo not given), 830 s.
`COc1ccc(CNC(=O)Cn2nc(C)c3sc(-c4ccccc4)nc3c2=O)cc1` yielded an RP-LC retention time of 846 s.
For `O=C(c1cc(-c2ccco2)on1)N1CCCC1c1ccccc1F` (stereo not given) the value was 777 s; for `O=C(Nc1cnc(-c2ccccc2)nc1)C1CCC1`, 856 s.
Consider `CCc1ccc(NC(=O)CSc2cc(N3CCCCC3)ncn2)cc1`, for which the RP-LC retention time was 974 s.
`Cc1cc(OCC(=O)Nc2ccnn2Cc2ccco2)cc(C)c1Cl`: the RP-LC retention time turned out to be 953 s.
For `CCOC(=O)c1cc(S(=O)(=O)N2CCCC2C(=O)NC(C)(C)CC)cn1C` (stereo not given) the value was 931 s.
Turning to `CCCc1nc(-c2c(C)cc(C)nc2NC(=O)c2cccc(Br)c2)no1`, the RP-LC retention time was 1010 s.
Under `CC(=O)N1CCC2(CC1)NC(=O)c1ccccc1O2` stands 633 s.
Under `COc1ccc(N2CC(C(=O)Nc3cc(C)nn3C3CCS(=O)(=O)C3)CC2=O)cc1` (stereo not given) stands 638 s; under `Cc1noc(/C=C\c2ccc(S(=O)(=O)N3CCCCC3C)cc2)c1NC(=O)C1CC1` (stereo not given), 938 s; under `Cc1ccc(-c2c(C)noc2C)cc1S(=O)(=O)Nc1ccccc1`, 932 s.
For `O=C1[C@H]2CN(Cc3ccc(F)cc3)C[C@H]2C(=O)N1CCc1ccccc1` the value was 748 s; for `COc1ccc(Nc2nc(N3CCN(c4ccccc4OC)CC3)nc3c2C(=O)CCC3)cc1`, 1170 s; for `Cc1cnc(C(=O)N2CCCC2c2nc(CCOCC3CCCC3)no2)cn1` (stereo not given), 903 s.
Turning to `Cc1ccc2c(=O)c(C(=O)Nc3ccc(C)c(C)c3)c[nH]c2n1`, the RP-LC retention time is 894 s.
For `Cc1cccc(-c2noc(Cn3c(=O)n(Cc4ccccc4Cl)c(=O)c4sccc43)n2)c1` the value was 1150 s; for `CCOC(=O)C1CCCN(C(=O)c2ccc(SCCN3CCCCC3)nc2)C1` (stereo not given), 629 s.
For `O=C1COc2ccccc2N1Cc1nc(-c2ccccc2)no1` the value was 971 s.
As for `COc1ccc(-c2cn3c(CC(=O)Nc4ccc(F)cc4)csc3n2)cc1OC`, the RP-LC retention time turned out to be 729 s.
Under `CCN1CCN(c2ccc(NC(=O)c3cccc(Cl)c3)cn2)C1=O` stands 802 s.
Under `Cc1cccc(-c2noc(C3CCCN3C(=O)C3CC(=O)N(c4ccc(C)c(C)c4)C3)n2)c1` (stereo not given) stands 1030 s.
For `CCOC(=O)Cn1c(C2CC(=O)N(c3ccccc3)C2)nc2ccccc21` (stereo not given) the value was 770 s.
In the case of `CCn1cc(-c2nc(C)c(C(=O)Nc3ccc4c(c3)OCCO4)s2)c2cccnc21`, the RP-LC retention time turned out to be 925 s.
`CC(C)N(CCCNC(=O)c1cc2sccc2n1C)Cc1ccccc1`: the RP-LC retention time was determined as 682 s.
For `CCOc1ccccc1C(=O)Nc1cccn2nc(CC)nc12`, the RP-LC retention time was 1140 s.
Molecule `CC(c1ccccc1)n1cnc2c(oc3ccccc32)c1=O` (stereo not given) registered an RP-LC retention time of 859 s.
The molecule `O=C(NCC(O)(c1ccccc1)C(F)(F)F)C(=O)Nc1ccon1` (stereo not given) came in with an RP-LC retention time of 738 s.
With `CCc1noc(NC(C)=O)c1-c1ccc(C)c(S(=O)(=O)NCCc2ccccc2)c1`, the RP-LC retention time turned out to be 855 s.
Under `Cc1c(C(=O)N2CCC(C)CC2)cnn1-c1cc(-c2nc(C(C)(C)C)no2)ccn1` stands 1240 s; under `O=C(Nc1ccc(N2CCN(Cc3ccc(F)cc3)C2=O)nc1)c1ccco1`, 749 s.
For `Cc1cc(OCC(=O)Nc2ccccc2)nc(N2CCN(c3ccccc3)CC2)n1` the value was 804 s; for `CC1CCN(c2nn(CC(=O)Nc3ccc4c(c3)OCCO4)c(=O)c3ccccc23)CC1`, 1060 s; for `CCc1ccc(NC(=O)N(C)CCc2noc(COc3ccccc3)n2)cc1`, 962 s.
For `CCNC(=O)c1cc(N(C)C)nc2ccccc12`, the RP-LC retention time came to 567 s.
`Cc1cc(C)c2c(n1)SCCN2C(=O)CCC(=O)NCc1ccccc1C` showed an RP-LC retention time of 700 s.
For `Cc1ccc(C(=O)N2CCC(N3C(=O)C(O)C34CCCCC4)CC2)s1` (stereo not given) the value was 678 s; for `COc1ccc(-c2nc(-c3cccc(-c4ccnn4C)c3)no2)cc1OC`, 1020 s.
For `O=C(NCc1ccco1)c1csc(N2CCN(c3ccc(F)cc3)CC2)n1` the value was 991 s; for `O=S(=O)(c1ccc(-c2nnc(C3CC3)o2)o1)N1CCCCC1`, 853 s.
For the molecule `CCc1noc(NC(C)=O)c1-c1ccc(C)c(S(=O)(=O)N2CCN(c3cc(C)ccc3C)CC2)c1`, the RP-LC retention time was 1130 s.
Under `CCOc1ccc(C(=O)Nc2ccc(-c3cn4ccc(C)nc4n3)cc2)cc1OCC` stands 684 s; under `CCc1ccc(N2CC(c3noc(-c4cnccn4)n3)CC2=O)cc1` (stereo not given), 760 s.
Under `C=C(C)[C@@H]1CC=C(C(=O)O)CC1` stands 875 s; under `CC1(C)C(=O)N(CC(=O)Nc2c3c(nc4ccccc24)CCCC3)c2ccccc21`, 664 s; under `Cc1cc(N2CCCC2)n2nc(CN3CCN(c4ccc(Cl)cc4)CC3)nc2n1`, 654 s.
For `COCCN1C(=O)Cc2ccccc2C1C(=O)NC(C)C` (stereo not given) the value was 652 s.
In turn, `Cc1c(C(=O)NC2CC2)cnn1-c1cc(-c2nc(C(C)(C)C)no2)ccn1` registered an RP-LC retention time of 668 s.
On to `O=C(NC1CCCCC1)N1CC(c2nnc(-c3ccncc3)o2)C2(CCOCC2)C1` (stereo not given), for which the RP-LC retention time was found to be 621 s.
Under `CCOC(=O)c1c(C)oc2nc(C)nc(NC3CCCc4ccccc43)c12` (stereo not given) stands 1130 s.
With `Fc1ccc(OCc2nc(C3CCNC3)no2)cc1` (stereo not given), the RP-LC retention time stood at 626 s.
Take `Nc1cc(C2CCN(C(=O)Nc3ccccc3Cl)CC2)no1`: the RP-LC retention time worked out at 698 s.
For `CCOC(=O)c1[nH]c(C)c(CN(Cc2ccco2)C(=O)c2ccc3c(c2)OCO3)c1C` the value was 935 s; for `CCOc1ccccc1CNC(=O)C1CCN(C(=O)c2sccc2-n2cccc2)CC1`, 882 s; for `Cc1sc2ccn(C)c(=O)c2c1C(=O)NC(C)c1ccc(F)cc1` (stereo not given), 779 s.
Under `CCCNC(=O)C1CCN(c2ccc(SCC(=O)N(C)c3ccccc3)nn2)CC1` stands 627 s; under `Cc1cc(-c2nnc(-c3ccc(F)cc3)o2)c(C)n1CC(=O)NCc1ccc(F)cc1F`, 939 s; under `Cc1ccc(NC(=O)Cn2cc(-c3ccccc3)c(N(C)C)n2)c(F)c1`, 997 s.
With `O=C(NC1(c2nc(C3CC3)no2)CCCCC1)c1cc(-c2ccc(F)cc2)n[nH]1`, the RP-LC retention time is 905 s.
For `Cc1c(Cl)cccc1N1CC(c2nc3ccccc3[nH]2)CC1=O` (stereo not given) the value was 577 s.
Regarding `COc1ccc(-c2csc(NC(=O)CS(=O)(=O)c3ccc(C)cc3)n2)c(OC)c1`, the RP-LC retention time is 1010 s.
For `O=C1CCC(C(=O)N2CCC(c3c[nH]c4ccccc34)(c3c[nH]c4ccccc34)CC2)N1` (stereo not given) the value was 711 s.
Under `Cc1cc(C)cc(NC(=O)Cn2c(=O)c(CCC(=O)NC3CCCC3)nc3ccccc32)c1` stands 916 s; under `CCOc1ccc(-c2nc(-c3cccc(-c4ccn[nH]4)c3)no2)cc1`, 999 s; under `CCCCN1CCN(C(=O)c2nc(N3CCSCC3)c3c(C)cc(C)nc3n2)CC1`, 581 s.
For `O=S(=O)(c1ccc(-c2nnc(C3CCCC3)o2)o1)N1CCCC1` the value was 933 s.
